Experimental data as given in the Kinase Knowledgebase extract (Sharma et al. 2016).

How the values were obtained:
EGFR (human) [1] = molecular target: EGFR (human) (UniProt P00533); settings: ovcar-3
EGFR (human) [2] = molecular target: EGFR (human) (UniProt P00533); settings: mda-mb-435
EGFR (human) [3] = molecular target: EGFR (human) (UniProt P00533); settings: sn12c
EGFR (human) [4] = molecular target: EGFR (human) (UniProt P00533); settings: hop-62
EGFR (human) [5] = molecular target: EGFR (human) (UniProt P00533); settings: du-145
EGFR (human) [6] = molecular target: EGFR (human) (UniProt P00533); settings: hct-116
EGFR (human) [7] = molecular target: EGFR (human) (UniProt P00533); settings: ccrf-cem
EGFR (human) [8] = molecular target: EGFR (human) (UniProt P00533); settings: uacc-62
EGFR (human) [9] = molecular target: EGFR (human) (UniProt P00533); settings: sf-539
EGFR (human) [10] = molecular target: EGFR (human) (UniProt P00533); settings: mcf-7
EGFR (mouse) = EGFR (mouse) (UniProt P00533); settings: baf3

EGFR (human), sequence (P00533 whole entry, looked up): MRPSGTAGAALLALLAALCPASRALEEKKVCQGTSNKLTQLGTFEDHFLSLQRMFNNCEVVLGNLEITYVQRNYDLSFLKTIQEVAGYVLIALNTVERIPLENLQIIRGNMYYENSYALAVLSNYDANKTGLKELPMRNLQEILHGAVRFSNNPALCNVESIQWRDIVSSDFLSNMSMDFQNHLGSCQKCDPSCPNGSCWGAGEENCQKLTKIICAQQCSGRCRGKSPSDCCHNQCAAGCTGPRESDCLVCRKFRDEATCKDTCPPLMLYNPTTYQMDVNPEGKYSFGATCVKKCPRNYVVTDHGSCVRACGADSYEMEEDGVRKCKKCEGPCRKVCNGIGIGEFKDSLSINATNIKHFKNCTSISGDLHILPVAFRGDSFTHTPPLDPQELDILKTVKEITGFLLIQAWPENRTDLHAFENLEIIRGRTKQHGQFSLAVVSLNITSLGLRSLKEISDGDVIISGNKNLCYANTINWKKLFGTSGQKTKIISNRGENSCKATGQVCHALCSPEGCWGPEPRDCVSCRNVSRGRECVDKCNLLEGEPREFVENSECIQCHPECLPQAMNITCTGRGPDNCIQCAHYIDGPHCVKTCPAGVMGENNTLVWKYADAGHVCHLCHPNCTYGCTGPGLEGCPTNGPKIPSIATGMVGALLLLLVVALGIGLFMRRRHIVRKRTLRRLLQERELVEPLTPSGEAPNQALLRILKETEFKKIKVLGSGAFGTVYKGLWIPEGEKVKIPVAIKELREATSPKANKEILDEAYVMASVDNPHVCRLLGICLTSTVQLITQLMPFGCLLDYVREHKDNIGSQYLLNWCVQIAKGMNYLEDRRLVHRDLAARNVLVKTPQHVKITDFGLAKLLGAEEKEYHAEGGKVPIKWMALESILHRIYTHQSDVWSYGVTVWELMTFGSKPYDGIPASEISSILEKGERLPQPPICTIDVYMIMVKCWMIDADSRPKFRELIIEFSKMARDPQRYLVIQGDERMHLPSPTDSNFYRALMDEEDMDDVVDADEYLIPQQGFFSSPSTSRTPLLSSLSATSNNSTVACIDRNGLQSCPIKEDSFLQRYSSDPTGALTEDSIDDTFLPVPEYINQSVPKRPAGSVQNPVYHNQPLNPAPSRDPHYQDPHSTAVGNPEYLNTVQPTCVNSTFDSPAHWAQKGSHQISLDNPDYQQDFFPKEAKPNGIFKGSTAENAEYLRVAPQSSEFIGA

| IC50 (EGFR (human) [1]) [µM] | IC50 (EGFR (human) [2]) [µM] | IC50 (EGFR (human) [3]) [µM] | IC50 (EGFR (human) [4]) [µM] | IC50 (EGFR (human) [5]) [µM] | IC50 (EGFR (human) [6]) [µM] | IC50 (EGFR (human) [7]) [µM] | IC50 (EGFR (human) [8]) [µM] | IC50 (EGFR (human) [9]) [µM] | IC50 (EGFR (human) [10]) [µM] | IC50 (EGFR (mouse)) [µM] | Structure (SMILES) |
| --- | --- | --- | --- | --- | --- | --- | --- | --- | --- | --- | --- |
| 4 | 15 | 6.1 | 19 | 15 | 17 | 0.56 | 12 | 2.3 |  |  | CCCCCCNC(=O)c1cc(NCc2cc(O)ccc2O)ccc1O |
| 21 | 30 | 12 | 23 | 16 |  |  | 15 | 21 |  |  | O=C(NCc1ccccc1)c1cc(NCc2cc(O)ccc2O)ccc1O |
|  |  |  |  |  |  |  |  |  | > 50 |  | CC(C)CCCC(C)[C@H]1CCC2C3CCC4C[C@@H](NC(=O)c5cc(NCc6cc(O)ccc6O)ccc5O)CC[C@]4(C)C3CC[C@@]21C (stereo partly drawn) |
| 11 | 13 | 7.7 |  | 18 | 9.2 | 0.29 | 7.8 | 9.2 |  |  | O=C(NCCc1ccc(F)cc1)c1cc(NCc2cc(O)ccc2O)ccc1O |
|  |  | 3.2 | 16 | 13 | 6.4 | 0.83 | 7.9 | 3.4 |  |  | O=C(NCCCc1ccccc1)c1ccc(NCc2cc(O)ccc2O)cc1 |
|  | 9.2 | 18 | 17 | 17 | 16 | 1.4 | 14 | 2.7 |  |  | O=C(NC1CCc2ccccc2C1)c1cc(NCc2cc(O)ccc2O)ccc1O (stereo not drawn) |
| 87 | 13 | 22 |  | 17 | 20 | 1.8 | 17 | 19 |  | > 50 | O=C(NCCN1CCOCC1)c1cc(NCc2cc(O)ccc2O)ccc1O |
| 7.7 | 19 | 18 | 20 | 16 | 18 | 2.7 | 14 | 17 |  |  | O=C(NCCc1ccccc1)c1cc(NCc2cc(O)ccc2O)ccc1O |
| 2.8 | 15 | 13 | 3.8 | 17 | 16 | 4.4 | 13 | 15 |  |  | O=C(NCCc1ccccc1)c1cccc(NCc2cc(O)ccc2O)c1 |
| 5.5 | 16 | 72 | 12 | 21 | 23 | 3.2 |  | 16 |  | > 100 | COc1ccc(CCNC(=O)c2cc(NCc3cc(O)ccc3O)ccc2O)cc1 |
| 5.9 | 20 | 9.8 | 17 | 16 | 15 | 1.6 |  | 8.4 |  |  | O=C(NCCc1ccc(Cl)cc1)c1cc(NCc2cc(O)ccc2O)ccc1O |
| 62 | 23 | 19 | 2.5 | 17 |  |  | 18 | 2.5 |  |  | O=C(NCCc1ccc(O)cc1)c1cc(NCc2cc(O)ccc2O)ccc1O |
| 6.8 | 12 | 9.7 | 20 | 15 | 10 | 2.7 | 12 | 9.7 |  | > 100 | O=C(NCc1ccccc1)c1ccc(NCc2cc(O)ccc2O)cc1 |
| 1.9 | 3.2 | 2.6 | 3.8 | 11 | 2.1 | 0.34 | 3.2 | 20 |  |  | CCCCCCCCCCCCNC(=O)c1cc(NCc2cc(O)ccc2O)ccc1O |
|  | 10 |  | 18 | 16 | 7.6 |  | 8.6 | 15.8 |  |  | O=C(NCCc1ccc(Br)cc1)c1cc(NCc2cc(O)ccc2O)ccc1O |
| 6.5 | 18 | 15 | 22 | 8.4 | 24 | 2.4 | 14 | 16 |  |  | O=C(NCCCc1ccccc1)c1cc(NCc2cc(O)ccc2O)ccc1O |
| 2.7 |  | 7.4 | 13 | 14 | 7.4 | 0.59 | 9.4 | 8.5 |  | > 200 | O=C(NCCc1ccccc1)c1ccc(NCc2cc(O)ccc2O)cc1 |
| 17 | 13 | 19 | 20 | 17 | 17 | 1 | 17 | 29 |  |  | O=C(NCCc1ccccn1)c1cc(NCc2cc(O)ccc2O)ccc1O |
